Source: patent US8778952B2, “Method of reducing intraosseous hypertension” (priority 2007, dated 2014)

System: patient with severe arthritis in their knee
Experiment: Case observation: MRI and reported pain of a patient's arthritic knee before and after routine use of a phosphodiesterase inhibitor
Type: in vivo, human
Conditions: one patient, 50 mg of sildenafil, once per day
Text: A physician, who is also the inventor of the present invention, performed an arthroscopic surgical procedure on a patient suffering from a loose cartilage body in the setting of severe arthritis in their knee. The patient was a competitive senior tennis player and declined knee replacement for that reason. The purpose of the procedure was merely to remove a loose body and abate the mechanical symptoms it caused. Approximately one year later, the patient returned to their physician for evaluation of what was believed to be an unrelated ganglion cyst on the same knee. […] Upon questioning by their physician, the patient explained that the only difference in their medical history (including lifestyle, activity, new illness and medications) between the time of the first and second MRIs was that they started using a phosphodiesterase inhibitor. Specifically, the patient started using Viagra® (50 mg of sildenafil, once per day). There were no other changes in the interval medical history.

CCCc1nn(C)c2c(=O)[nH]c(-c3cc(S(=O)(=O)N4CCN(C)CC4)ccc3OCC)nc12 [Viagra®, sildenafil]
intraosseous hypertension / bone edema on coronal MRI of knee (white spots on tibial spines) (FIG. 2 MRI compared with FIG. 1 MRI approximately one year earlier): dissipation of the intraosseous hypertension | knee pain from arthritis (reported by patient) (few months prior to second MRI, approximately one year after first MRI): reduction in knee pain
